One series deals with T1, CDK1/CycB (Homo sapiens, UniProt P06493).
T1 construct: purchased ProQinase GmbH, Freiburg; host or cells: baculovirus-infected insect cells (Sf9)
In words: CDK1/CycB kinase assay (Assay 1). Format: biochemical. Conditions: 0.5 μM ATP, histon IIIS substrate; read-out: CDK1/CycB (Assay 1) Concentration for 50% inhibition of enzyme activity, IC50. The method, then:
10.1 Assay 1: CDK1/CycB Kinase Assay
Recombinant CDK1 and CycB-GST fusion proteins, purified from baculovirus-infected insect cells (Sf9), were purchased from ProQinase GmbH, Freiburg. The histon IIIS used as kinase substrate is commercially available from the company Sigma.
CDK1/CycB (200 ng/measuring point) was incubated for 10 min at 22° C. in the presence of various concentrations of test substances (0 μM, and within the range 0.01-100 μM) in assay buffer [50 mM Tris/HCl pH8.0, 10 mM MgCl2, 0.1 mM Na ortho-vanadate, 1.0 mM dithiothreitol, 0.5 μM adenosine triphosphate (ATP), 10 μg/measuring point histon IIIS, 0.2 μCi/measuring point ^33P-gamma ATP, 0.05% NP40, 1.25% dimethylsulfoxide]. The reaction was stopped by adding EDTA solution (250 mM, pH8.0, 15 μl/measuring point).
From each reaction mixture, 15 μl was applied to P30 filter strips (from Wallac), and unincorporated ^33P-ATP was removed by washing the filter strips three times, for 10 min each time, in 0.5% phosphoric acid. After drying the filter strips for 1 hour at 70° C., the filter strips were covered with scintillator strips (MeltiLex™ A, from Wallac) and stoved for 1 hour at 90° C. The amount of incorporated ^33P (substrate phosphorylation) was determined by scintillation measurement in a gamma-radiation measuring instrument (Wallac). The measured data were standardized to 0% inhibition (enzyme reaction without inhibitor) and 100% inhibition (all assay components except enzyme). The IC50 values were determined by means of a 4-parameter fit using the company's own software.

Series [1] deals with HeLa-MaTu cervical carcinoma cells. In words: Proliferation assay (Assay 4), crystal violet staining. Format: cell-based. Conditions: Homo sapiens, 96 h, 4 days incubation; read-out: HeLa-MaTu (Assay 4) Concentration for 50% inhibition of cellular proliferation, IC50. How it is done: 10.4 Assay 4: Proliferation Assay
Cultivated human HeLa-MaTu cervical carcinoma cells (obtained from EPO-GmbH, Berlin) were plated at a density of 3000 cells/measuring point in a 96-well multititer is plate in 200 μl of growth medium (DMEM/HAMS F12, 2 mM L-glutamine, 10% fetal calf serum). After 24 hours the cells of one plate (zero-point plate) were stained with crystal violet (see below), whereas the medium of the other plates was replaced with fresh culture medium (200 μl), to which the test substances had been added at various concentrations (0 μM, and in the range 0.01-30 μM; the final concentration of the solvent dimethylsulfoxide was 0.5%). The cells were incubated for 4 days in the presence of the test substances. Cellular proliferation was determined by staining the cells with crystal violet: the cells were fixed by adding 20 μl/measuring point of an 11% glutaraldehyde solution for 15 min at room temperature. After washing the fixed cells with water three times, the plates were dried at room temperature. The cells were stained by adding 100 μl/measuring point of a 0.1% crystal violet solution (pH adjusted to pH3 by adding acetic acid). After washing the stained cells with water three times, the plates were dried at room temperature. The dye was dissolved by adding 100 μl/measuring point of a 10% acetic acid solution. The extinction was determined photometrically at a wavelength of 595 nm. The percentage change in cell growth was calculated by standardization of the measured values to the extinction values of the zero-point plate (=0%) and the extinction of the untreated (0 μM) cells (=100%). The measured data were standardized to 0% inhibition (cell proliferation without inhibitor) and 100% inhibition (zero-point plate). The IC50 values were determined by means of a 4-parameter fit using the company's own software.

In series [2] the test system is HeLa-MaTu human cervical carcinoma xenograft. Kind of series: HeLa-MaTu cervical tumor xenograft model on NMRI nude mice. Format: in vivo. Conditions: oral; for tolerability of the cyclic treatment regimen: 10 mg/kg; for response vs control in vivo at 10 mg/kg: Mus musculus, read-out: treatment/control ratio T/C (tumor weight). How it is done: HeLa-MaTu (EPO-GmbH, Berlin) human cervical carcinoma cells, which were grown in cell culture, were implanted subcutaneously in the flank of female NMRI nude mice. […] The study was terminated as soon as the tumors in one of the groups reached a size of approx. 150 mm^2.
(§1) The growth-inhibiting effect of the compounds was tested in the HeLa-MaTu cervical tumor model as xenograft on NMRI nude mice. […] Treatment of the established tumors was begun on day 4 after inoculation of the tumors.
as §1, §1
The study was designed for determining the initial response of a human cervical carcinoma xenograft model to treatments with the 5-Br comparative substance V12. The growth-inhibiting effect of the compounds was tested in the HeLa-MaTu cervical tumor model as xenograft on NMRI nude mice. V12 was dissolved completely in the solubilizer 40% polyethylene glycol 400 (PEG 400)/60% water to a final concentration of 0.7 mg/ml (group 2), 0.85 mg/ml (group 3), or 1.0 mg/ml (group 4). Treatment of the established tumors was begun on day 4 after inoculation of the tumors.
HeLa-MaTu (EPO-GmbH, Berlin) human cervical carcinoma cells, which were grown in cell culture, were implanted subcutaneously in the flank of female NMRI nude mice. […] The study was terminated as soon as the tumors in one of the groups reached a size of approx. 160 mm^2.
(§2) The growth-inhibiting effect of the compounds was tested in the HeLa-MaTu cervical tumor model as xenograft on NMRI nude mice. […] Treatment of the established tumors was begun on day 5 after inoculation of the tumors.
as §2, §2
The following test groups were used: • Group 1: Control, treatment with solubilizer (40% PEG 400/60% water) • Group 2: Compound according to WO 2005/037800 prepared according to preparation V14 disclosed above • (6 mg/kg, oral, 2x daily on day 5, 6, 12, 13, 19, 20) • Group 3: Compound according to WO 2005/037800 prepared according to preparation V14 disclosed above • (8 mg/kg, oral, 2× daily on day 5, 6, 12, 13, 19, 20) • Group 4: Compound according to WO 2005/037800 prepared according to preparation V14 disclosed above • (10 mg/kg, oral, 2× daily on day 5, 6, 12, 13, 19, 20)
The study was designed for determining the initial response of a human cervical carcinoma xenograft model to treatments with the 5-Br comparative substance V14. The growth-inhibiting effect of the compounds was tested in the HeLa-MaTu cervical tumor model as xenograft on NMRI nude mice. V14 was dissolved completely in the solubilizer 40% polyethylene glycol 400 (PEG 400)/60% water to a final concentration of 0.6 mg/ml (group 2), 0.8 mg/ml (group 3), or 1.0 mg/ml (group 4). Treatment of the established tumors was begun on day 5 after inoculation of the tumors.

The record followed here is US8735412B2, “Sulfoximine-substituted anilinopyrimidine derivatives as CDK inhibitors, the production thereof, and use as medicine” (Bayer Intellectual Property GmbH, priority 2008, dated 2014).

Structures are written as SMILES. Where two headings read alike, the source gives them in different places.

T1 sequence (P06493 whole entry): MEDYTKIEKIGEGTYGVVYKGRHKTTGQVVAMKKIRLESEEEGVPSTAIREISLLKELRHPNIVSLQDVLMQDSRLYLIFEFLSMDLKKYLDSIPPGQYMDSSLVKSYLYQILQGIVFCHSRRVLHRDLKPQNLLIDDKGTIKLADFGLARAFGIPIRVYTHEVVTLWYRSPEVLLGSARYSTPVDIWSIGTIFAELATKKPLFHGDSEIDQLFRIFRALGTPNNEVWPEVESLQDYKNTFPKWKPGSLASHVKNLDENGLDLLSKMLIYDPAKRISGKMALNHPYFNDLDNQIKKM
T1 sequence (P14635 whole entry partner): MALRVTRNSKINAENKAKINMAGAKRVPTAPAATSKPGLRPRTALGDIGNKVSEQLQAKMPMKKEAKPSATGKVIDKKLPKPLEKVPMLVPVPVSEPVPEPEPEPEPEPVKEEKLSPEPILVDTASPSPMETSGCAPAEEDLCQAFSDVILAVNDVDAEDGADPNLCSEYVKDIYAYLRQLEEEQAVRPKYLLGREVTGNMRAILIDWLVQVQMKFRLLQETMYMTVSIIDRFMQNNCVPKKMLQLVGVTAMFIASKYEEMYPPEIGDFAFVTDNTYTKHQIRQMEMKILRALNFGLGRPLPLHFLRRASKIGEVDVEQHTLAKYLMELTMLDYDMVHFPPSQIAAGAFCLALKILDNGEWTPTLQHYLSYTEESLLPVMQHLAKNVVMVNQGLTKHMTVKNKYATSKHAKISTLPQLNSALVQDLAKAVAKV

Take `C[C@@H](O)[C@@H](C)Oc1nc(Nc2ccc(S(=N)(=O)C3CC3)cc2)ncc1Br` (single isomer, unassigned) [Example V14]: the figures for the IC50 (at CDK1/CycB; in series [1]) were 4 nM and 10 nM, respectively. In addition, the “reduction of tumor weight at the end of the study to % of the control group” value in series [2] (10 mg/kg (group 4), 2x daily on day 5, 6, 12, 13, 19, 20, day 20) was found to be 44%. The “tolerability of the cyclic treatment regimen” value in series [2] (2x daily on day 5, 6, 12, 13, 19, 20) was “well-tolerated”. Besides, the “effect on tumor growth (in words)” value in series [2] (6, 8, 10 mg/kg, 2x daily on day 5, 6, 12, 13, 19, 20) is reported as “dose-dependent inhibition of tumor growth”. In addition, the response vs control in vivo at 10 mg/kg in series [2] (480 h, 10 mg/kg (group 4), 2x daily on day 5, 6, 12, 13, 19, 20, day 20) worked out at 44%.

As for `CCS(=N)(=O)c1ccc(Nc2ncc(Br)c(N[C@H](C)[C@@H](C)O)n2)cc1` (some centres unmarked) [Example V12], the IC50 on CDK1/CycB worked out at 3 nM; in series [1], 13 nM. Also, in series [2] (2x daily on day 4, 5, 11, 12, 17, 18, 23, 24), the “tolerability of the cyclic treatment regimen” value was “well-tolerated”. Further, the “effect on tumor growth (in words)” value in series [2] (7, 8.5, 10 mg/kg, 2x daily on day 4, 5, 11, 12, 17, 18, 23, 24) is listed as “dose-dependent weak inhibition of tumor growth”. Besides, the response vs control in vivo at 10 mg/kg in series [2] (672 h, 10 mg/kg (group 4), 2x daily on day 4, 5, 11, 12, 17, 18, 23, 24, day 28) stood at 51%.
